From US8686150B2 (Sanofi, priority 2011, dated 2014)

Target: T1, human full-length recombinant PKC βII (Homo sapiens, UniProt P05771)
T1 construct: Active human full-length recombinant PKC βII; purchased Invitrogen GmbH, Darmstadt, Germany
Test: Determination of PKC βII inhibition (Caliper mobility-shift kinase assay, Fluorescein-RFARKGSLRQKNV peptide substrate)
Type: biochemical
Conditions: example compounds at a final concentration of 1.14 μM (±0.15 μM)
Procedure, shortened: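 Compounds were tested at 1.14 μM final. Enzyme was activated by PS, DAG and CaCl2 in Hepes pH 7.4 with MgCl2, with substrate 3 μM and ATP 120 μM as pre-mix concentrations. After 60 min at 32 °C and an EDTA stop, Caliper separation gave fractional turnover, which was normalised to no-compound and no-enzyme controls.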

T1 sequence (P05771 1-673 isoform P05771-2): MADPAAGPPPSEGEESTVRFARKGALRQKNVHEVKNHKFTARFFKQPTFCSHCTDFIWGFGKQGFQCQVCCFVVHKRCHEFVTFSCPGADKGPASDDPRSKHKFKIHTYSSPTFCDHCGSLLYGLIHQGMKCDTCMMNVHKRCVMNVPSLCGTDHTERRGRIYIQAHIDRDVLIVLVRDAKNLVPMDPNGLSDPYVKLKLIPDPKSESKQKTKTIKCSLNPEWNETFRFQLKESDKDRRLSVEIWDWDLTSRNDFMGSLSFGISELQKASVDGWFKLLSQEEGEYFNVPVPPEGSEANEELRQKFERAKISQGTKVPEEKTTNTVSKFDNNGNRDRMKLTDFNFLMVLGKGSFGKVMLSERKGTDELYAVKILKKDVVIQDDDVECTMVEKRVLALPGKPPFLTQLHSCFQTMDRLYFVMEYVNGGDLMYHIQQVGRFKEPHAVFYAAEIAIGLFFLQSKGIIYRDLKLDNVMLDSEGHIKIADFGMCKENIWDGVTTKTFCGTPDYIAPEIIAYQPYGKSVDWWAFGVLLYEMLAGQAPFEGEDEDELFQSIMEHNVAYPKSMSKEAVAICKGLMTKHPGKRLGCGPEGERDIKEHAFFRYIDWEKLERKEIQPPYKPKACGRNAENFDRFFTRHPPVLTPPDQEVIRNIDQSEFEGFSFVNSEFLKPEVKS

SMILES | inhibition at 1.14 µM
Cc1n[nH]c2nc(-c3ccc(O)cc3)cc(C(=O)N[C@@H]3[C@H]4CC[C@H](C4)[C@H]3CN)c12 [Example 228, 6-(4-Hydroxy-phenyl)-3-methyl-1H-pyrazolo[3,4-b]pyridine-4-carboxylic acid (3-aminomethyl-bicyclo[2.2.1]hept-2-yl)-amide] | 91%
Cc1n[nH]c2nc(-c3ccc(O)cc3)cc(C(=O)NC3CCC(N)CC3)c12 (stereo not shown) [Example 231, 6-(4-Hydroxy-phenyl)-3-methyl-1H-pyrazolo[3,4-b]pyridine-4-carboxylic acid (4-amino-cyclohexyl)-amide] | 84%
Cc1n[nH]c2nc(-c3ccc(O)cc3)cc(C(=O)N3CCNC[C@H]3C(=O)NC(C)(C)C)c12 [Example 232, (S)-1-[6-(4-Hydroxy-phenyl)-3-methyl-1H-pyrazolo[3,4-b]pyridine-4-carbonyl]-piperazine-2-carboxylic acid tert-butylamide] | 95%
Cc1n[nH]c2nc(-c3ccc(O)cc3)cc(C(=O)N3CCN[C@@H](C(C)C)C3)c12 [Example 233, [6-(4-Hydroxy-phenyl)-3-methyl-1H-pyrazolo[3,4-b]pyridin-4-yl]-((S)-3-isopropyl-piperazin-1-yl)-methanone] | 95%
Cc1n[nH]c2nc(-c3ccc(O)cc3)cc(C(=O)N3CCC4(CCNCC4)CC3)c12 [Example 236, (3,9-Diaza-spiro[5.5]undec-3-yl)-[6-(4-hydroxy-phenyl)-3-methyl-1H-pyrazolo[3,4-b]pyridin-4-yl]-methanone] | 84%
Cc1n[nH]c2nc(-c3ccc(O)cc3)cc(C(=O)N3CC4(CCNCC4)c4ccccc43)c12 [Example 237] | 59%
CNC1CCN(C(=O)c2cc(-c3ccc(O)cc3)nc3[nH]nc(C)c23)C1 (stereo not shown) [Example 240, [6-(4-Hydroxy-phenyl)-3-methyl-1H-pyrazolo[3,4-b]pyridin-4-yl]-(3-methylamino-pyrrolidin-1-yl)-methanone] | 94%
CNCCCNC(=O)c1cc(-c2ccc(O)cc2)nc2[nH]nc(C)c12 [Example 244, 6-(4-Hydroxy-phenyl)-3-methyl-1H-pyrazolo[3,4-b]pyridine-4-carboxylic acid (3-methylamino-propyl)-amide] | 76%
Cc1n[nH]c2nc(-c3ccc(O)cc3)cc(C(=O)NCC3CCCCN3)c12 (stereo not shown) [Example 245, 6-(4-Hydroxy-phenyl)-3-methyl-1H-pyrazolo[3,4-b]pyridine-4-carboxylic acid (piperidin-2-ylmethyl)-amide] | 83%
Cc1n[nH]c2nc(-c3ccc(O)cc3)cc(C(=O)N3CC(N)C3)c12 [Example 247, (3-Amino-azetidin-1-yl)-[6-(4-hydroxy-phenyl)-3-methyl-1H-pyrazolo[3,4-b]pyridin-4-yl]-methanone] | 69%
Cc1n[nH]c2nc(-c3ccc(O)cc3)cc(C(=O)N[C@H]3C[C@H](N)C3)c12 [Example 252, 6-(4-Hydroxy-phenyl)-3-methyl-1H-pyrazolo[3,4-b]pyridine-4-carboxylic acid (trans-3-amino-cyclobutyl)-amide] | 72%
Cc1n[nH]c2nc(-c3ccc(O)cc3)cc(C(=O)NC3CCCC(N)C3)c12 (stereo not shown) [Example 254, 6-(4-Hydroxy-phenyl)-3-methyl-1H-pyrazolo[3,4-b]pyridine-4-carboxylic acid (3-amino-cyclohexyl)-amide] | 80%
Cc1n[nH]c2nc(-c3ccc(O)cc3)cc(C(=O)N3CCC4(CCNC4)CC3)c12 [Example 257, (2,8-Diaza-spiro[4.5]dec-8-yl)-[6-(4-hydroxy-phenyl)-3-methyl-1H-pyrazolo[3,4-b]pyridin-4-yl]-methanone] | 82%
Cc1n[nH]c2nc(-c3ccc(O)cc3)cc(C(=O)N3CCC4(CC3)CNCCO4)c12 [Example 259, [6-(4-Hydroxy-phenyl)-3-methyl-1H-pyrazolo[3,4-b]pyridin-4-yl]-(1-oxa-4,9-diaza-spiro[5.5]undec-9-yl)-methanone] | 29%
Cc1n[nH]c2nc(-c3ccc(O)cc3)cc(C(=O)N3CCC4(CCNCC4)C3)c12 [Example 260, (2,8-Diaza-spiro[4.5]dec-2-yl)-[6-(4-hydroxy-phenyl)-3-methyl-1H-pyrazolo[3,4-b]pyridin-4-yl]-methanone] | 78%
Cc1n[nH]c2nc(-c3ccc(O)cc3)cc(C(=O)N3CCOC4(CCNCC4)C3)c12 [Example 261, [6-(4-Hydroxy-phenyl)-3-methyl-1H-pyrazolo[3,4-b]pyridin-4-yl]-(1-oxa-4,9-diaza-spiro[5.5]undec-4-yl)-methanone] | 70%

The next lines start with the values.

inhibition at 1.14 µM | SMILES
100% | Cc1n[nH]c2nc(-c3ccc(O)cc3)cc(C(=O)N3C[C@H]4CC[C@@H](C3)C4N)c12 (stereo partly shown) [Example 227, (8-Amino-3-aza-bicyclo[3.2.1]oct-3-yl)-[6-(4-hydroxy-phenyl)-3-methyl-1H-pyrazolo[3,4-b]pyridin-4-yl]-methanone]
93% | Cc1n[nH]c2nc(-c3ccc(O)cc3)cc(C(=O)N3CCCC4CNCCC43)c12 (stereo not shown) [Example 230, [6-(4-Hydroxy-phenyl)-3-methyl-1H-pyrazolo[3,4-b]pyridin-4-yl]-(octahydro-[1,6]naphthyridin-1-yl)-methanone]
94% | Cc1n[nH]c2nc(-c3ccc(O)cc3)cc(C(=O)N3CC4(CCNCC4)C3)c12 [Example 234, (2,7-Diaza-spiro[3.5]non-2-yl)-[6-(4-hydroxy-phenyl)-3-methyl-1H-pyrazolo[3,4-b]pyridin-4-yl]-methanone]
89% | Cc1n[nH]c2nc(-c3ccc(O)cc3)cc(C(=O)N3CCC4(CCCNC4)C3)c12 (stereo not shown) [Example 235, (2,7-Diaza-spiro[4.5]dec-2-yl)-[6-(4-hydroxy-phenyl)-3-methyl-1H-pyrazolo[3,4-b]pyridin-4-yl]-methanone]
77% | Cc1n[nH]c2nc(-c3ccc(O)cc3)cc(C(=O)N3CC[C@@H](N(C)C)C3)c12 [Example 238, ((R)-3-Dimethylamino-pyrrolidin-1-yl)-[6-(4-hydroxy-phenyl)-3-methyl-1H-pyrazolo[3,4-b]pyridin-4-yl]-methanone]
78% | Cc1n[nH]c2nc(-c3ccc(O)cc3)cc(C(=O)N3CC[C@H](N(C)C)C3)c12 [Example 239, ((S)-3-Dimethylamino-pyrrolidin-1-yl)-[6-(4-hydroxy-phenyl)-3-methyl-1H-pyrazolo[3,4-b]pyridin-4-yl]-methanone]
88% | Cc1n[nH]c2nc(-c3ccc(O)cc3)cc(C(=O)N(C)C3CCNCC3)c12 [Example 241, 6-(4-Hydroxy-phenyl)-3-methyl-1H-pyrazolo[3,4-b]pyridine-4-carboxylic acid methyl-piperidin-4-yl-amide]
87% | Cc1n[nH]c2nc(-c3ccc(O)cc3)cc(C(=O)NC3CCCNC3)c12 (stereo not shown) [Example 242, 6-(4-Hydroxy-phenyl)-3-methyl-1H-pyrazolo[3,4-b]pyridine-4-carboxylic acid piperidin-3-ylamide]
78% | Cc1n[nH]c2nc(-c3ccc(O)cc3)cc(C(=O)NCC3CCCNC3)c12 (stereo not shown) [Example 243, 6-(4-Hydroxy-phenyl)-3-methyl-1H-pyrazolo[3,4-b]pyridine-4-carboxylic acid (piperidin-3-ylmethyl)-amide]
88% | Cc1n[nH]c2nc(-c3ccc(O)cc3)cc(C(=O)N3CC[C@H](N)C3)c12 [Example 246, ((S)-3-Amino-pyrrolidin-1-yl)-[6-(4-hydroxy-phenyl)-3-methyl-1H-pyrazolo[3,4-b]pyridin-4-yl]-methanone]
83% | Cc1n[nH]c2nc(-c3ccc(O)cc3)cc(C(=O)NC3CNC3)c12 [Example 248, 6-(4-Hydroxy-phenyl)-3-methyl-1H-pyrazolo[3,4-b]pyridine-4-carboxylic acid azetidin-3-ylamide]
82% | Cc1n[nH]c2nc(-c3ccc(O)cc3)cc(C(=O)N3CCC(N)CC3)c12 [Example 249, (4-Amino-piperidin-1-yl)-[6-(4-hydroxy-phenyl)-3-methyl-1H-pyrazolo[3,4-b]pyridin-4-yl]-methanone]
85% | Cc1n[nH]c2nc(-c3ccc(O)cc3)cc(C(=O)N3C[C@H]4CNC[C@H]4C3)c12 [Example 250, (3aR,6aS)-Hexahydro-pyrrolo[3,4-c]pyrrol-2-yl-[6-(4-hydroxy-phenyl)-3-methyl-1H-pyrazolo[3,4-b]pyridin-4-yl]-methanone]
73% | Cc1n[nH]c2nc(-c3ccc(O)cc3)cc(C(=O)N3CCC4(CNCCO4)C3)c12 (stereo not shown) [Example 253, [6-(4-Hydroxy-phenyl)-3-methyl-1H-pyrazolo[3,4-b]pyridin-4-yl]-(6-oxa-2,9-diaza-spiro[4.5]dec-2-yl)-methanone]
90% | Cc1n[nH]c2nc(-c3ccc(O)cc3)cc(C(=O)N3CCC4(CC3)CNC4)c12 [Example 255, (2,7-Diaza-spiro[3.5]non-7-yl)-[6-(4-hydroxy-phenyl)-3-methyl-1H-pyrazolo[3,4-b]pyridin-4-yl]-methanone]
86% | Cc1n[nH]c2nc(-c3ccc(O)cc3)cc(C(=O)N3CCC4(CCNC4)C3)c12 (stereo not shown) [Example 256, (2,7-Diaza-spiro[4.4]non-2-yl)-[6-(4-hydroxy-phenyl)-3-methyl-1H-pyrazolo[3,4-b]pyridin-4-yl]-methanone]
78% | Cc1n[nH]c2nc(-c3ccc(O)cc3)cc(C(=O)N3CCOC4(CCCNC4)C3)c12 (stereo not shown) [Example 258, [6-(4-Hydroxy-phenyl)-3-methyl-1H-pyrazolo[3,4-b]pyridin-4-yl]-(1-oxa-4,8-diaza-spiro[5.5]undec-4-yl)-methanone]
59% | Cc1n[nH]c2nc(-c3ccc(O)cc3)cc(C(=O)N3CCCC4(CNCCO4)C3)c12 (stereo not shown) [Example 262, [6-(4-Hydroxy-phenyl)-3-methyl-1H-pyrazolo[3,4-b]pyridin-4-yl]-(1-oxa-4,8-diaza-spiro[5.5]undec-8-yl)-methanone]
